Data from article PMC10142505, “Synthesis, Evaluation of Enzyme Inhibition and Redox Properties of Potential Dual COX-2 and 5-LOX Inhibitors” (Pharmaceuticals, 2023).
Marks after values point to notes of the source that are not given here.

Tested on: human serum pool
Test: Redox activity (oxy score from TOS, PAB, TAS, SHG) in vitro in human serum pool
Conditions: 37 °C, median (interquartile range); for Oxy score (OS), 2 h incubation, TBH added / Oxy score (OS), 24 h incubation, TBH added: with TBH added; for Oxy score (OS), 2 h incubation / Oxy score (OS), 24 h incubation: without TBH; for Oxy score (OS), 2 h incubation: average of five concentrations
Description: The remains of the serum samples were taken from healthy subjects after biochemical analysis; these subjects participated in regular medical examinations at the Military Medical Academy in Belgrade and consented to the formation of a serum pool. Neither the patients’ data nor their identities were used. Serum pool samples were prepared and aliquoted (450 µL portions) according to the routine procedure for in-house controle samples and preserved at the -80 °C until analysis. Five serial dilutions of the tested compounds (concentrations: 1000 µM, 500 µM, 250 µM, 125 µM and 62.5 µM) were added alone (50 µL) or in combination (25 µL) with oxidant TBH (25 µM) into 450 µL of serum. The compounds were dissolved in dimethyl sulfoxide (DMSO) for stock solution (1000 µM), while a PBS buffer (phosphate buffered saline) pH = 7.4 was used for serial dilutions (500 µM, 250 µM, 125 µM and 62.5 µM). Deionized water was used as a blank. DMSO and buffer pH = 7.4 were used as a control, while trolox solution (2 mmol/L) was used as a standard. All samples were incubated in duplicate for 2 h and 24 h at 37 °C.
Oxidative stress parameters (total antioxidative status (TAS), total oxidative status (TOS), total concentration of sulfhydryl group (SHG) and prooxidative–antioxidative balance (PAB)) were determined in order to calculate prooxidative score, antioxidative score and oxy score (OS). These parameters were determined in serum.
Total antioxidative status (TAS) was measured using Erel’s method, which was further optimized by Kotur-Stevuljevic et al. in 2015 [34]. ABTS (2,2-azino-bis(3-ethyl-benzthiazoline-6-sulfonic acid) is oxidized to a green-colored ABTS^+ cation by hydrogen peroxide in the acetate buffer (pH = 3.6). This stable cation is chromogen, and the presence of antioxidants in the samples causes its discoloration proportional to their concentrations. The absorbance was measured using a SPECTROstar Nano Microplate Reader (BMG Labtech, Ortenberg, Germany). The reaction was calibrated with Trolox and the TAS values are expressed as mmol trolox equivalent/L.
Total oxidative status (TOS) was measured using Erel’s method. Here, a ferrous ion-o-dianisidine complex is oxidized to ferric ion by the oxidants present in the sample. The ferric ion forms a colored complex with xylenol orange in an acidic environment and in the presence of glycerol. The intensity of the color of the formed complex is proportional to the total contents of oxidants in the sample. The absorbance was measured at 560 nm using a SPECTROstar Nano Microplate Reader (BMG Labtech, Ortenberg, Germany). The reaction was calibrated with hydrogen peroxide and the TOS values are expressed as µmol H2O2 equivalent/L.
Prooxidant–antioxidant balance (PAB) was measured according to procedures in the literature. Here, hydrogen peroxide is determined in the presence of antioxidants in the sample. Both of them (hydrogen peroxide and antioxidants (including uric acid)) react with chromogen TMB (3,3′,5,5′-tetramethylbenzidine) simultaneously. The hydrogen peroxide and chromogen reaction is enzymatically catalyzed with peroxidase, while the antioxidants–chromogen reaction is non-enzymatic. The intense blue color, produced as a result of the reaction between hydrogen peroxide and TMB, is decolorized by the reaction of the antioxidant with the TMB. The resulting color (result of two competitive reactions) is proportional to the ratio of antioxidants to prooxidants. The absorbance was measured at 450 nm. Different ratios of hydrogen peroxide and uric acid solutions were used to make a standard curve. The PAB results are expressed in hydrogen peroxide concentrations.
Total Sulfydryl Groups Content (SHG) was measured using a modified version of Ellman’s method. This method is based on the reaction between DTNB ([…]) and aliphatic thiol compounds in an alkaline environment (pH = 9.0). […]

| SMILES | Oxy score (OS), 2 h incubation, TBH added | Oxy score (OS), 2 h incubation | Oxy score (OS), 24 h incubation, TBH added | Oxy score (OS), 24 h incubation |
| --- | --- | --- | --- | --- |
| Cc1cc(C(C)(C)C)c(O)c(C(C)(C)C)c1 [BHT, Butylated hydroxytoluene, reference compound] | 7.98 (6.77–8.81) | 3.08 (2.73–3.26) | 4.51 (4.38–7.22) | 2.62 (2.14–3.22) |
| Cc1ccc(-c2cc(C(F)(F)F)nn2-c2ccc(S(N)(=O)=O)cc2)cc1 [Celecoxib, reference compound] | 7.94 (6.97–8.45) | 5.66 (2.92–12.90) | 4.95 (4.57–10.25) | 2.77 (2.46–3.27) |
| CC(C)(C)OO [TBH, tert-butyl hydroperoxide, reference compound] | – | 6.40 (4.66–11.59) | – | 6.43 (4.73–12.00) |
| Cc1c(C)c2c(c(C)c1O)CCC(C)(C(=O)O)O2 (centres unmarked) [Trolox, reference compound] | – | 0.54 (−0.66–2.43) | – | 0.07 (−0.59–0.59) * |
| NC(N)=O [Urea, urea, reference compound] | 8.11 (7.61–8.79) | 3.48 (3.44–4.08) | 5.19 (4.96–14.00) | 4.60 (3.62–6.02) |
| CC(c1cc2ccccc2s1)N(O)C(N)=O (centres unmarked) [Zileuton, reference compound] | 6.87 (6.52–7.18) | 2.60 (−7.86–7.54) | 8.80 (5.71–13.66) | 3.61 (2.47–4.93) |
